# In BigSolDB 2.1:
structure (smiles),measurement,setting,value
N[C@@H](Cc1c[nH]c2ccccc12)C(=O)O,solubility (mole fraction),"in acetone, 278.15 K",0.0001
same,solubility (mole fraction),"in acetone, 283.15 K",0.00011
same,solubility (mole fraction),"in acetone, 288.15 K",0.00013
same,solubility (mole fraction),"in acetone, 293.15 K",0.00015
same,solubility (mole fraction),"in acetone, 298.15 K",0.00018
same,solubility (mole fraction),"in acetone, 303.15 K",0.00022
same,solubility (mole fraction),"in acetone, 308.15 K",0.00026
same,solubility (mole fraction),"in acetone, 313.15 K",0.00031
same,solubility (mole fraction),"in acetone, 318.15 K",0.00037
same,solubility (mole fraction),"in acetone, 323.15 K",0.00045
same,solubility (mole fraction),"in acetone, 328.15 K",0.00056
same,solubility (mole fraction),"in acetone, 333.15 K",0.00069
same,solubility (mole fraction),"in acetonitrile, 278.15 K",1e-05
same,solubility (mole fraction),"in acetonitrile, 283.15 K",2e-05
same,solubility (mole fraction),"in acetonitrile, 288.15 K",2e-05
same,solubility (mole fraction),"in acetonitrile, 293.15 K",3e-05
same,solubility (mole fraction),"in acetonitrile, 298.15 K",4e-05
same,solubility (mole fraction),"in acetonitrile, 303.15 K",5e-05
same,solubility (mole fraction),"in acetonitrile, 308.15 K",7e-05
same,solubility (mole fraction),"in acetonitrile, 313.15 K",8e-05
same,solubility (mole fraction),"in acetonitrile, 318.15 K",0.0001
same,solubility (mole fraction),"in acetonitrile, 323.15 K",0.00012
same,solubility (mole fraction),"in acetonitrile, 328.15 K",0.00014
same,solubility (mole fraction),"in acetonitrile, 333.15 K",0.00017
same,solubility (mole fraction),"in ethanol, 278.15 K",0.00012
same,solubility (mole fraction),"in ethanol, 283.15 K",0.00013
same,solubility (mole fraction),"in ethanol, 288.15 K",0.00014
same,solubility (mole fraction),"in ethanol, 293.15 K",0.00017
same,solubility (mole fraction),"in ethanol, 298.15 K",0.0002
same,solubility (mole fraction),"in ethanol, 303.15 K",0.00024
same,solubility (mole fraction),"in ethanol, 308.15 K",0.00028
same,solubility (mole fraction),"in ethanol, 313.15 K",0.00033
same,solubility (mole fraction),"in ethanol, 318.15 K",0.00038
same,solubility (mole fraction),"in ethanol, 323.15 K",0.00044
same,solubility (mole fraction),"in ethanol, 328.15 K",0.0005
same,solubility (mole fraction),"in ethanol, 333.15 K",0.00058
same,solubility (mole fraction),"in ethyl acetate, 278.15 K",4e-05
same,solubility (mole fraction),"in ethyl acetate, 283.15 K",5e-05
same,solubility (mole fraction),"in ethyl acetate, 288.15 K",7e-05
same,solubility (mole fraction),"in ethyl acetate, 293.15 K",9e-05
same,solubility (mole fraction),"in ethyl acetate, 298.15 K",0.00011
same,solubility (mole fraction),"in ethyl acetate, 303.15 K",0.00014
same,solubility (mole fraction),"in ethyl acetate, 308.15 K",0.00018
same,solubility (mole fraction),"in ethyl acetate, 313.15 K",0.00023
same,solubility (mole fraction),"in ethyl acetate, 318.15 K",0.00028
same,solubility (mole fraction),"in ethyl acetate, 323.15 K",0.00034
same,solubility (mole fraction),"in ethyl acetate, 328.15 K",0.00041
same,solubility (mole fraction),"in ethyl acetate, 333.15 K",0.0005
same,solubility (mole fraction),"in isopropanol, 278.15 K",0.00011
same,solubility (mole fraction),"in isopropanol, 283.15 K",0.00012
same,solubility (mole fraction),"in isopropanol, 288.15 K",0.00014
same,solubility (mole fraction),"in isopropanol, 293.15 K",0.00015
same,solubility (mole fraction),"in isopropanol, 298.15 K",0.00018
same,solubility (mole fraction),"in isopropanol, 303.15 K",0.00021
same,solubility (mole fraction),"in isopropanol, 308.15 K",0.00024
same,solubility (mole fraction),"in isopropanol, 313.15 K",0.00028
same,solubility (mole fraction),"in isopropanol, 318.15 K",0.00033
same,solubility (mole fraction),"in isopropanol, 323.15 K",0.00037
same,solubility (mole fraction),"in isopropanol, 328.15 K",0.00043
same,solubility (mole fraction),"in isopropanol, 333.15 K",0.0005
same,solubility (mole fraction),"in methanol, 278.15 K",0.00062
same,solubility (mole fraction),"in methanol, 283.15 K",0.00066
same,solubility (mole fraction),"in methanol, 288.15 K",0.00072
same,solubility (mole fraction),"in methanol, 293.15 K",0.0008
same,solubility (mole fraction),"in methanol, 298.15 K",0.0009
same,solubility (mole fraction),"in methanol, 303.15 K",0.00102
same,solubility (mole fraction),"in methanol, 308.15 K",0.00115
same,solubility (mole fraction),"in methanol, 313.15 K",0.00131
same,solubility (mole fraction),"in methanol, 318.15 K",0.00149
same,solubility (mole fraction),"in methanol, 323.15 K",0.00166
same,solubility (mole fraction),"in methanol, 328.15 K",0.00189
same,solubility (mole fraction),"in methanol, 333.15 K",0.00217
same,solubility (mole fraction),"in n-butanol, 278.15 K",0.0001
same,solubility (mole fraction),"in n-butanol, 283.15 K",0.00011
same,solubility (mole fraction),"in n-butanol, 288.15 K",0.00012
same,solubility (mole fraction),"in n-butanol, 293.15 K",0.00014
same,solubility (mole fraction),"in n-butanol, 298.15 K",0.00017
same,solubility (mole fraction),"in n-butanol, 303.15 K",0.0002
same,solubility (mole fraction),"in n-butanol, 308.15 K",0.00024
same,solubility (mole fraction),"in n-butanol, 313.15 K",0.00028
same,solubility (mole fraction),"in n-butanol, 318.15 K",0.00034
same,solubility (mole fraction),"in n-butanol, 323.15 K",0.0004
same,solubility (mole fraction),"in n-butanol, 328.15 K",0.00049
same,solubility (mole fraction),"in n-butanol, 333.15 K",0.00059
same,solubility (mole fraction),"in water, 278.15 K",0.00098
same,solubility (mole fraction),"in water, 283.15 K",0.00105
same,solubility (mole fraction),"in water, 288.15 K",0.00113
same,solubility (mole fraction),"in water, 293.15 K",0.00124
same,solubility (mole fraction),"in water, 298.15 K",0.00137
same,solubility (mole fraction),"in water, 303.15 K",0.00154
same,solubility (mole fraction),"in water, 308.15 K",0.00174
same,solubility (mole fraction),"in water, 313.15 K",0.00199
same,solubility (mole fraction),"in water, 318.15 K",0.00229
same,solubility (mole fraction),"in water, 323.15 K",0.00261
same,solubility (mole fraction),"in water, 328.15 K",0.00294
same,solubility (mole fraction),"in water, 333.15 K",0.00328
